This note sets out measurements from patent publication US8247377B2, “Non-steroidal glucocorticoid inhibitors and their use in treating inflammation, allergy and auto-immune conditions” (Glaxo Group Limited, priority 2006, dated 2012).

SMILES strings stand for the structures. Some results are limits rather than exact numbers.

This assay deals with T1, glucocorticoid receptor (Homo sapiens, UniProt P04150).
T1 construct: a partially purified full length glucocorticoid receptor
T1 sequence (P04150 1-777): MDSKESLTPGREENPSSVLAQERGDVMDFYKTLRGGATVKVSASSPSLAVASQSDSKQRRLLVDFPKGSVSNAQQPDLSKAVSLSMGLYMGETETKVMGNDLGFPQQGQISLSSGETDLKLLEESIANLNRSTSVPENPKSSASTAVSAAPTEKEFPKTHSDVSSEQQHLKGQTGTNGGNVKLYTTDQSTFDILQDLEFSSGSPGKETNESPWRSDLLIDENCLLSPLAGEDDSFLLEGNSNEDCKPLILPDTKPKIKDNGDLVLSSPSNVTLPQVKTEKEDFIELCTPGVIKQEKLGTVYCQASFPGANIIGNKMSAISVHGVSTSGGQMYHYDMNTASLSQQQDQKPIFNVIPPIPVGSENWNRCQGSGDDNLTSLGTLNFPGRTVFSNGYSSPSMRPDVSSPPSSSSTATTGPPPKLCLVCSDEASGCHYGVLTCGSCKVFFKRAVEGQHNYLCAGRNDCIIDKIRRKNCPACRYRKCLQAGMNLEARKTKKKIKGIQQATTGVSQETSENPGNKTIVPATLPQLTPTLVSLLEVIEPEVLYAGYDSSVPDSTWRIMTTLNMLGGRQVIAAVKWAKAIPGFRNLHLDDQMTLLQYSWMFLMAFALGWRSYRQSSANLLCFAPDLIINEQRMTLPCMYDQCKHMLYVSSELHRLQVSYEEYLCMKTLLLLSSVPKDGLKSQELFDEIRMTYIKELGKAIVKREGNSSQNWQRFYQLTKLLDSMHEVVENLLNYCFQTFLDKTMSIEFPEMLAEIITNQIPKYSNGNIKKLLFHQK
Put plainly: Glucocorticoid receptor binding assay (fluorescence polarisation). The note with it: competition with Alexa 555 fluorescently-labelled dexamethasone derivative, full length glucocorticoid receptor; read-out: glucocorticoid binding pIC50 (converted). A digest of the protocol: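 Compounds in DMSO incubated with fluorescent dexamethasone and partially purified full-length GR plus stabilising buffer components, 2 hrs at room temperature in the dark. Displacement read as decrease in fluorescence polarisation; pIC50 estimated from dose-response curves.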

On to `CCN(CC(O)(CNC(=O)c1cnn(-c2ccc(F)cc2)c1N)C(F)(F)F)C(=O)c1c(Cl)cccc1Br` (racemic) [Example 24 (racemic), 5-amino-N-(2-{[[(2-bromo-6-chlorophenyl)carbonyl](ethyl)amino]methyl}-3,3,3-trifluoro-2-hydroxypropyl)-1-(4-fluorophenyl)-1H-pyrazole-4-carboxamide], for which the IC50 was ≤ 316 nM.

Take `CCN(CC(O)(CNC(=O)c1cnn(-c2ccc(F)cc2)c1N)C(F)(F)F)C(=O)c1c(Cl)cccc1OC(F)F` (racemic) [Example 25 (racemic), 5-amino-N-(2-{[({2-chloro-6-[(difluoromethyl)oxy]phenyl}carbonyl)(ethyl)amino]methyl}-3,3,3-trifluoro-2-hydroxypropyl)-1-(4-fluorophenyl)-1H-pyrazole-4-carboxamide]: the IC50 is ≤ 316 nM.

Consider `CCN(CC(O)(CNC(=O)c1cnn(-c2ccc(F)cc2)c1N)C(F)(F)F)C(=O)c1c(OC(F)F)cccc1OC(F)F` (racemic) [Example 26 (racemic), 5-amino-N-(2-{[({2,6-bis[(difluoromethyl)oxy]phenyl}carbonyl)(ethyl)amino]methyl}-3,3,3-trifluoro-2-hydroxypropyl)-1-(4-fluorophenyl)-1H-pyrazole-4-carboxamide], for which the IC50 is ≤ 316 nM.

In the case of `CCN(CC(O)(CNC(=O)c1cnn(-c2ccc(F)cc2)c1N)C(F)(F)F)C(=O)c1c(C(F)(F)F)cccc1C(F)(F)F` (racemic) [Example 27 (racemic), 5-amino-N-(2-{[{[2,6-bis(trifluoromethyl)phenyl]carbonyl}(ethyl)amino]methyl}-3,3,3-trifluoro-2-hydroxypropyl)-1-(4-fluorophenyl)-1H-pyrazole-4-carboxamide], the IC50 was ≤ 316 nM.

Turning to `Nc1c(C(=O)NCC(O)(CN(CCF)C(=O)c2c(Cl)cccc2Cl)C(F)(F)F)cnn1-c1ccc(F)cc1` (racemic) [Example 28 (racemic), 5-amino-N-(2-{[[(2,6-dichlorophenyl)carbonyl](2-fluoroethyl)amino]methyl}-3,3,3-trifluoro-2-hydroxypropyl)-1-(4-fluorophenyl)-1H-pyrazole-4-carboxamide], the IC50 was ≤ 316 nM.

With `Nc1c(C(=O)NCC(O)(CN(CCF)C(=O)c2c(Cl)cccc2Br)C(F)(F)F)cnn1-c1ccc(F)cc1` (racemic) [Example 30 (racemic), 5-amino-N-(2-{[[(2-bromo-6-chlorophenyl)carbonyl](2-fluoroethyl)amino]methyl}-3,3,3-trifluoro-2-hydroxypropyl)-1-(4-fluorophenyl)-1H-pyrazole-4-carboxamide], the IC50 is ≤ 316 nM.

With `Nc1c(C(=O)NCC(O)(CN(CCF)C(=O)c2c(Cl)cccc2OC(F)F)C(F)(F)F)cnn1-c1ccc(F)cc1` (racemic) [Example 31 (racemic), 5-amino-N-(2-{[({2-chloro-6-[(difluoromethyl)oxy]phenyl}carbonyl)(2-fluoroethyl)amino]methyl}-3,3,3-trifluoro-2-hydroxypropyl)-1-(4-fluorophenyl)-1H-pyrazole-4-carboxamide], the IC50 was ≤ 316 nM.

In the case of `CCN(CC(O)(CNC(=O)c1cnn(-c2ccc(F)c(F)c2)c1N)C(F)(F)F)C(=O)c1c(F)cccc1F` (racemic) [Example 33 (racemic), 5-amino-1-(3,4-difluorophenyl)-N-(2-{[[(2,6-difluorophenyl)carbonyl](ethyl)amino]methyl}-3,3,3-trifluoro-2-hydroxypropyl)-1H-pyrazole-4-carboxamide], the IC50 was ≤ 316 nM.

On to `CCN(CC(O)(CNC(=O)c1cnn(-c2ccc(F)cc2F)c1N)C(F)(F)F)C(=O)c1c(F)cccc1F` (racemic) [Example 34 (racemic), 5-amino-1-(2,4-difluorophenyl)-N-(2-{[[(2,6-difluorophenyl)carbonyl](ethyl)amino]methyl}-3,3,3-trifluoro-2-hydroxypropyl)-1H-pyrazole-4-carboxamide], for which the IC50 is ≤ 316 nM.

With `CCN(CC(O)(CNC(=O)c1cnn(-c2cc(F)cc(F)c2)c1N)C(F)(F)F)C(=O)c1c(F)cccc1F` (racemic) [Example 35 (racemic), 5-amino-1-(3,5-difluorophenyl)-N-(2-{[[(2,6-difluorophenyl)carbonyl](ethyl)amino]methyl}-3,3,3-trifluoro-2-hydroxypropyl)-1H-pyrazole-4-carboxamide], the IC50 was ≤ 316 nM.

Turning to `CCN(CC(O)(CNC(=O)c1cnn(-c2cc(F)ccc2F)c1N)C(F)(F)F)C(=O)c1c(F)cccc1F` (racemic) [Example 36 (racemic), 5-amino-1-(2,5-difluorophenyl)-N-(2-{[[(2,6-difluorophenyl)carbonyl](ethyl)amino]methyl}-3,3,3-trifluoro-2-hydroxypropyl)-1H-pyrazole-4-carboxamide], the IC50 is ≤ 316 nM.

Consider `CCN(CC(O)(CNC(=O)c1cnn(-c2c(F)cccc2F)c1N)C(F)(F)F)C(=O)c1c(F)cccc1F` (racemic) [Example 37 (racemic), 5-amino-1-(2,6-difluorophenyl)-N-(2-{[[(2,6-difluorophenyl)carbonyl](ethyl)amino]methyl}-3,3,3-trifluoro-2-hydroxypropyl)-1H-pyrazole-4-carboxamide], for which the IC50 was ≤ 316 nM.

As to `CCN(CC(O)(CNC(=O)c1cnn(-c2cccc(F)c2)c1N)C(F)(F)F)C(=O)c1c(F)cccc1F` (racemic) [Example 38 (racemic), 5-amino-N-(2-{[[(2,6-difluorophenyl)carbonyl](ethyl)amino]methyl}-3,3,3-trifluoro-2-hydroxypropyl)-1-(3-fluorophenyl)-1H-pyrazole-4-carboxamide], the IC50 is ≤ 316 nM.

With `CCN(CC(O)(CNC(=O)c1cnn(-c2ccc(Cl)cc2)c1N)C(F)(F)F)C(=O)c1c(F)cccc1F` (racemic) [Example 39 (racemic), 5-amino-1-(4-chlorophenyl)-N-(2-{[[(2,6-difluorophenyl)carbonyl](ethyl)amino]methyl}-3,3,3-trifluoro-2-hydroxypropyl)-1H-pyrazole-4-carboxamide], the IC50 was ≤ 316 nM.

On to `CCN(CC(O)(CNC(=O)c1cnn(-c2cccc(Cl)c2)c1N)C(F)(F)F)C(=O)c1c(F)cccc1F` (racemic) [Example 41 (racemic), 5-amino-1-(3-chlorophenyl)-N-(2-{[[(2,6-difluorophenyl)carbonyl](ethyl)amino]methyl}-3,3,3-trifluoro-2-hydroxypropyl)-1H-pyrazole-4-carboxamide], for which the IC50 is ≤ 316 nM.

With `CCN(CC(O)(CNC(=O)c1cnn(-c2ccccc2F)c1N)C(F)(F)F)C(=O)c1c(F)cccc1F` (racemic) [Example 42 (racemic), 5-amino-N-(2-{[[(2,6-difluorophenyl)carbonyl](ethyl)amino]methyl}-3,3,3-trifluoro-2-hydroxypropyl)-1-(2-fluorophenyl)-1H-pyrazole-4-carboxamide], the IC50 was ≤ 316 nM.

Turning to `Nc1c(C(=O)NCC(O)(CNC(=O)c2c(C(F)F)cccc2C(F)F)C(F)(F)F)cnn1-c1ccc(F)cc1` (racemic) [Example 43 (racemic), 5-Amino-N-{2-[({[2,6-bis(difluoromethyl)phenyl]carbonyl}amino)methyl]-3,3,3-trifluoro-2-hydroxypropyl}-1-(4-fluorophenyl)-1H-pyrazole-4-carboxamide], the IC50 is ≤ 316 nM.

In the case of `Nc1c(C(=O)NCC(O)(CNC(=O)c2c(Br)cccc2C(F)(F)F)C(F)(F)F)cnn1-c1ccc(F)cc1` (racemic) [Example 45 (racemic), 5-Amino-N-{2-[({[2-bromo-6-(trifluoromethyl)phenyl]carbonyl}amino)methyl]-3,3,3-trifluoro-2-hydroxypropyl}-1-(4-fluorophenyl)-1H-pyrazole-4-carboxamide], the IC50 was ≤ 316 nM.

As for `Nc1c(C(=O)NCC(O)(CNC(=O)c2c(Cl)cccc2Cl)C(F)(F)F)cnn1-c1ccc(F)cc1` (single isomer, unassigned) [Example 3 Enantiomer 1, 5-Amino-N-[2-({[(2,6-dichlorophenyl)carbonyl]amino}methyl)-3,3,3-trifluoro-2-hydroxypropyl]-1-(4-fluorophenyl)-1H-pyrazole-4-carboxamide], the IC50 was ≤ 316 nM.

For `CCN(CC(O)(CNC(=O)c1cnn(-c2ccc(F)cc2)c1N)C(F)(F)F)C(=O)c1ccccc1S(C)(=O)=O` (single isomer, unassigned) [Example 10 Enantiomer 1, 5-Amino-N-{2-[(ethyl{[2-(methylsulfonyl)phenyl]carbonyl}amino)methyl]-3,3,3-trifluoro-2-hydroxypropyl}-1-(4-fluorophenyl)-1H-pyrazole-4-carboxamide], the IC50 was ≤ 316 nM.

Regarding `Nc1c(C(=O)NCC(O)(CNC(=O)c2c(Br)cccc2Br)C(F)(F)F)cnn1-c1ccc(F)cc1` (single isomer, unassigned) [Example 11 Enantiomer 1, 5-Amino-N-[2-({[(2,6-dibromophenyl)carbonyl]amino}methyl)-3,3,3-trifluoro-2-hydroxypropyl]-1-(4-fluorophenyl)-1H-pyrazole-4-carboxamide], the IC50 is ≤ 316 nM.
